# Patent US9416128B2, “Fused heterocyclic compounds as ion channel modulators” (Gilead Sciences, Inc., priority 2013, dated 2016)
# Assays:
# hNaV1.2 (SCN2A) = target: T1, hNaV1.2 (SCN2A) (Homo sapiens, UniProt Q99250); experiment: Use-dependent inhibition of the CNS NaV1.2 sodium channel; type: cell-based; conditions: HEK-293, % inhibition, 25 Hz; for inhibition at 1 µM: use-dependent block at 1 uM, read-out: Nav1.2 UDB 25 Hz 1 uM; for inhibition at 10 µM: use-dependent block at 10 uM, read-out: Nav1.2 UDB 25 Hz 10 uM
# T1 construct: expressed in transfected cells
# Method: HEK-293 cells stably expressing wild-type (WT) hNaV1.2 (SCN2A NCBI # NM_021007.2, SCN1B NCBI # NM_001037.4, SCN2B NCBI # NM_004588.2) were used to record INa. Cells are maintained with standard tissue culture procedures and stable channel expression is maintained with 800 ug/mL G418 and 3 ug/mL Puromycin in the culture medium. Unless otherwise noted, all reagents are purchased from Sigma-Aldrich (St Louis, Mo., U.S.A.).
# Assays measuring Use-Dependent Block (UDB) of NaV1.2 are performed on an automated electrophysiology platform, QPatch 16X or QPatch HT (Sophion Bioscience, Copenhagen, Denmark), using the whole cell patch clamp technique to measure currents through the cell membrane. Series resistance compensation is set to 100% and series resistance and whole-cell compensation are performed automatically. Currents stored in the Sophion Bioscience Oracle database (Sophion Bioscience, Copenhagen, Denmark). Analysis is performed using QPatch Assay software and data are compiled in Excel 2010 (Microsoft, Seattle, Wash., U.S.A.). The internal (pipette) solution consists of (in mM) 105 CsF, 10 NaF, 20 CsCl, 2 EGTA, 10 HEPES, 10 Dextrose with a pH of 7.35 and osmolarity of 300 mOsmol/kg. The external (bath) solution contains in (mM): 145 NaCl, 4 KCl, 1.8 CaCl2, 1 MgCl2, 10 dextrose, 10 HEPES, with a pH of 7.35 and osmolarity of 310 mOsmol/kg. Experiments are carried out at 23-25° C.
# Compound stocks are routinely made by the Gilead Sample Bank in vials to 10 mM in dimethyl sulfoxide (DMSO). In some cases, when compounds are not soluble in DMSO, they are made in 100% ethanol. Stocks are sonicated as necessary. […]
# Cells are allowed to stabilize for 10 min after establishment of the whole-cell configuration before current is measured. The test compound is applied 2 times at 60 second intervals. After the second compound addition, a 200 second wait period was imposed to allow for equilibration. Leak currents are subtracted by using an online P/4 procedure and all currents are low-pass Bessel filtered at 5 kHz and digitized at […].
# Results are presented as mean percentage inhibition.
# Use-dependent block of NaV1.2 peak current is measured during pulse number 20 of a voltage pulse train (0 mV, 20 ms, 20 pulses, 25 Hz) from a holding potential of −120 mV.
# Currents are normalized to the peak current recorded in response to the first pulse in each frequency train. The voltage protocol for UDB was performed in the absence and presence of compound and percentage inhibition was calculated with respect to the compound free condition.
# Data analysis is performed using QPatch Assay Software 4.0, and Excel 2002 (Microsoft, Seattle, Wash., U.S.A.).
# [1] = target: wild-type human cardiac sodium channel, hNaV 1.5 (Late INa) (Homo sapiens, UniProt Q14524); experiment: Late INa screening assay (whole cell patch clamp, QPatch, Tefluthrin-induced late current); type: cell-based; conditions: HEK293, % inhibition (percent block of late INa) at 1 uM; HEK293 hNaV1.5; 10 μM Tefluthrin; read-out: Nav1.5 Late INa 1 uM
# In short: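 HEK293 cells stably expressing hNaV1.5 without beta subunits, whole-cell patch clamp at 23-25° C; late current induced by 10 μM Tefluthrin, measured 240-265 ms into 250 ms steps to −20 mV from −120 mV at 0.1 Hz. Compounds typically 0.3 or 1 μM, three additions over 5 min; percent block normalized to 0Na baseline with rundown correction.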
# T1 sequence (Q99250 whole entry): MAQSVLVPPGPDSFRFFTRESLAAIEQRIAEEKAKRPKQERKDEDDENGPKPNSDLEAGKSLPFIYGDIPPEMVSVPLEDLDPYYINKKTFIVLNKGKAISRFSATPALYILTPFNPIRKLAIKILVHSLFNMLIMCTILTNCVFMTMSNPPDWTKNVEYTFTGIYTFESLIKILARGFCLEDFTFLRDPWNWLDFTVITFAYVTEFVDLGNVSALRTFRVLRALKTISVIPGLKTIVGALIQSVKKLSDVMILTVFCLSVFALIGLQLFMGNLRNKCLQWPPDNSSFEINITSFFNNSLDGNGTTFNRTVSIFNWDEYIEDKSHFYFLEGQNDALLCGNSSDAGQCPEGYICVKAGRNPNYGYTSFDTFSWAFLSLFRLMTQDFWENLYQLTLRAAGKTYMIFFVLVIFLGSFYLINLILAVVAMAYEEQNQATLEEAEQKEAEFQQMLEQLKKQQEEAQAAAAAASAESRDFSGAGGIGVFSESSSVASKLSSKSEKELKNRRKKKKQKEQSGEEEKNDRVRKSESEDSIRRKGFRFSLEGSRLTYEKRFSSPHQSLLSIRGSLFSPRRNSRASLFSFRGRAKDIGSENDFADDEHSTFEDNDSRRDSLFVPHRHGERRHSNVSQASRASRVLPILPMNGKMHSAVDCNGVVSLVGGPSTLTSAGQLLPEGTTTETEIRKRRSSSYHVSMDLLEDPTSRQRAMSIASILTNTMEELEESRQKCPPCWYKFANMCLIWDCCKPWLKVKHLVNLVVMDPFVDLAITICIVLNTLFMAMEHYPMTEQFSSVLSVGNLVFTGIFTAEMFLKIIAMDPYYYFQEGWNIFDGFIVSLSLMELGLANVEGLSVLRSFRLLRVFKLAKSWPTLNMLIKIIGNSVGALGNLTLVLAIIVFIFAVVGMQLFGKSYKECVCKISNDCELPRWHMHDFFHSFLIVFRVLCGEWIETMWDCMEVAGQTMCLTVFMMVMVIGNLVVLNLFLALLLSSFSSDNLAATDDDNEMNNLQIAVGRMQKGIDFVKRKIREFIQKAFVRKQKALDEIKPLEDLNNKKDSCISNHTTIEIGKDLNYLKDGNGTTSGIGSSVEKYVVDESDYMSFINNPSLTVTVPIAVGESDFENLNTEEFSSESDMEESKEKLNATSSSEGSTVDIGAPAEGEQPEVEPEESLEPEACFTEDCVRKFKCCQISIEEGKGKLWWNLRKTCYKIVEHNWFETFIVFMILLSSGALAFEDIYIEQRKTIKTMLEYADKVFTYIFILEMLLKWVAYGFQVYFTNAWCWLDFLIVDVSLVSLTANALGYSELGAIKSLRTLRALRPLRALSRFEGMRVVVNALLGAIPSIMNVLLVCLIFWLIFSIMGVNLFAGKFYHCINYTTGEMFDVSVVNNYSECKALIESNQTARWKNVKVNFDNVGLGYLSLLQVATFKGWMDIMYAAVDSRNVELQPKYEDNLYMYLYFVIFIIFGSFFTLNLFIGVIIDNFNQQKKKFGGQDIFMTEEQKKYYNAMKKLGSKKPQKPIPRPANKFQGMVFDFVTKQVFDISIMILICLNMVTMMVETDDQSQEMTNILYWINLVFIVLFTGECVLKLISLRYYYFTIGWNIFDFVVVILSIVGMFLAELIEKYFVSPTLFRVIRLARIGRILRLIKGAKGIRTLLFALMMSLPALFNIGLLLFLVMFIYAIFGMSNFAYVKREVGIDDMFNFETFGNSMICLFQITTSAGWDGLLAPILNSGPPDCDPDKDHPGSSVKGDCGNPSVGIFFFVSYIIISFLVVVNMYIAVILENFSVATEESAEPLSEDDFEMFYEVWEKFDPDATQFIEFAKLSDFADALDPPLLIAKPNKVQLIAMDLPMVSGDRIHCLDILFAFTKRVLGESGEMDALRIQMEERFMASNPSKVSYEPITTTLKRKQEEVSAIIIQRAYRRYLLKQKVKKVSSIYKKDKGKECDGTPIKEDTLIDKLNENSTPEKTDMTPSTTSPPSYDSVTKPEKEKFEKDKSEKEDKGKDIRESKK
# T1 sequence (Q07699 19-218 partner): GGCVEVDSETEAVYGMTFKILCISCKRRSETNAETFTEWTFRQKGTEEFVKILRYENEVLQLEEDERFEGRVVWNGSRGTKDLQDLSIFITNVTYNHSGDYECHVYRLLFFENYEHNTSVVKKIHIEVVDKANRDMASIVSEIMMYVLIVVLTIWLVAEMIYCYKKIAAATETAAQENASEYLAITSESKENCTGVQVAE
# T1 sequence (O60939 30-215 partner): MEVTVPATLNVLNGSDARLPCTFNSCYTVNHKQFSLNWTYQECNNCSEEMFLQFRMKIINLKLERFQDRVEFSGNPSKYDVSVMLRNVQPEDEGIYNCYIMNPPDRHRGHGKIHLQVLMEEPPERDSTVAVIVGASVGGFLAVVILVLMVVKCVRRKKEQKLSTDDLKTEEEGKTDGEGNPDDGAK
# Sequence of wild-type human cardiac sodium channel, hNaV 1.5 (Late INa) (Q14524 whole entry): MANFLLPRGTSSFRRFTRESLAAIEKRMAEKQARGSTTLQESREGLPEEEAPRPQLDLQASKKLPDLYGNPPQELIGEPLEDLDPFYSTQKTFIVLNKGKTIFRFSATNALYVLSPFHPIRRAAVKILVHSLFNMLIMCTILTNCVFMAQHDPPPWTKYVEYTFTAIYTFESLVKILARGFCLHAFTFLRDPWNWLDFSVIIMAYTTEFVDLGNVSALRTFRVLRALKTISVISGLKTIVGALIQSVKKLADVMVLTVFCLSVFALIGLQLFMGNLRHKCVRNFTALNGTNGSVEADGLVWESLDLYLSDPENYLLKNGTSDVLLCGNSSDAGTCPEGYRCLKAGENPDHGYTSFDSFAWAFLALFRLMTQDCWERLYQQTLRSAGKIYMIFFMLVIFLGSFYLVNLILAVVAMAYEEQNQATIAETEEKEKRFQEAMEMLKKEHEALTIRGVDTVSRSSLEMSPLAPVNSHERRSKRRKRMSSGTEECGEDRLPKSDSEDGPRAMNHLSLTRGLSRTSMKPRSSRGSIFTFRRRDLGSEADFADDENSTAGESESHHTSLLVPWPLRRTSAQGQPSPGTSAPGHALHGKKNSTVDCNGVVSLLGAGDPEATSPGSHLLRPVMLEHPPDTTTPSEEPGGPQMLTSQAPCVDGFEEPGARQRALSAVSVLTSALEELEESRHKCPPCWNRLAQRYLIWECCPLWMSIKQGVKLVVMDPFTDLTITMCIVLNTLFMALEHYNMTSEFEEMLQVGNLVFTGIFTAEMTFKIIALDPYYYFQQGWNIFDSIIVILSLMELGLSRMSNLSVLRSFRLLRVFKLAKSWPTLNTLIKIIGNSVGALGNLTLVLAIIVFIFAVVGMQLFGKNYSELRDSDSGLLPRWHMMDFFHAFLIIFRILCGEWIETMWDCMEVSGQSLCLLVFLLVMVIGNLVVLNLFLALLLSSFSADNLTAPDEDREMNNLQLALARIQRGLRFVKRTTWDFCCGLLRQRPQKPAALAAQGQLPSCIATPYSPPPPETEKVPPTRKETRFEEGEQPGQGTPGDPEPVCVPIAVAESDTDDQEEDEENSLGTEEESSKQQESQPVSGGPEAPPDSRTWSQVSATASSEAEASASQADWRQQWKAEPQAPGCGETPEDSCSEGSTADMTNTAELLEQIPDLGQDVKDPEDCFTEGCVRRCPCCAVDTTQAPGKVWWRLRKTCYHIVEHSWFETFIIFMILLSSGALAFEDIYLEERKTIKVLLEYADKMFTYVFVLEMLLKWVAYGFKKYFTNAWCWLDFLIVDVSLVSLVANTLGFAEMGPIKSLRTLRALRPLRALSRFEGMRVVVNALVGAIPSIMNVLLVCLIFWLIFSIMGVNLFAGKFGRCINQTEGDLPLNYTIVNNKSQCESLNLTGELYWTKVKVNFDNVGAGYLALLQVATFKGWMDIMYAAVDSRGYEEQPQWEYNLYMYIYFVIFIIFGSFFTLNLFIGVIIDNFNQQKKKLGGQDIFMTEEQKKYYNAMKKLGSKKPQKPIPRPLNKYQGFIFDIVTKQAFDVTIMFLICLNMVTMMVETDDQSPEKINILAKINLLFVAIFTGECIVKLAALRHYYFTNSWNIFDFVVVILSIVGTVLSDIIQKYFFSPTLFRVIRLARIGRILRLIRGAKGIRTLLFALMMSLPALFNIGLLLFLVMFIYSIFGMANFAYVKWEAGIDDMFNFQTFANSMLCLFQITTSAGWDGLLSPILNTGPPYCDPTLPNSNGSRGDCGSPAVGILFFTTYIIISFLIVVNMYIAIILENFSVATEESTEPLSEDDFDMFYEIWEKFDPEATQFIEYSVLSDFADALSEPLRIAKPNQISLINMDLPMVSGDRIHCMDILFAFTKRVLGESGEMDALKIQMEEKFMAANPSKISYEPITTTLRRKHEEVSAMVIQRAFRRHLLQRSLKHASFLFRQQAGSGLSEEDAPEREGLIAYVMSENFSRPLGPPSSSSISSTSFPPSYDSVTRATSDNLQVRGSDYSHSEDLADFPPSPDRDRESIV
SMILES,inhibition at 1 µM (hNaV1.2 (SCN2A)),inhibition at 10 µM (hNaV1.2 (SCN2A)),inhibition at 1 µM [1]
"COc1cc(C(F)(F)F)ccc1-c1ccc2c(c1)CN(Cc1ncccn1)C(=O)O2 [Example 34, 6-(2-methoxy-4-(trifluoromethyl)phenyl)-3-(pyrimidin-2-ylmethyl)-3,4-dihydro-2H-benzo[e][1,3]oxazin-2-one]",38.8%,78.5%,44.6%
"CCOc1cc(C(F)(F)F)ccc1-c1ccc2c(c1)CN(Cc1ncccn1)C(=O)O2 [Example 35, 6-(2-ethoxy-4-(trifluoromethyl)phenyl)-3-(pyrimidin-2-ylmethyl)-3,4-dihydro-2H-benzo[e][1,3]oxazin-2-one]",39.3%,75.1%,49.4%
"O=C1Oc2ccc(-c3ccc(C(F)(F)F)cc3F)cc2CN1Cc1ncccn1 [Example 36, 6-(2-fluoro-4-(trifluoromethyl)phenyl)-3-(pyrimidin-2-ylmethyl)-3,4-dihydro-2H-benzo[e][1,3]oxazin-2-one]",19.1%,55.9%,43.6%
"Cc1cc(C(F)(F)F)ccc1-c1ccc2c(c1)CN(Cc1ncccn1)C(=O)O2 [Example 37, 6-(2-methyl-4-(trifluoromethyl)phenyl)-3-(pyrimidin-2-ylmethyl)-3,4-dihydro-2H-benzo[e][1,3]oxazin-2-one]",7.8%,27.1%,41.1%
"O=C1Oc2ccc(-c3ccc(C4(C(F)(F)F)CC4)cc3)cc2CN1Cc1ncccn1 [Example 38, 3-(pyrimidin-2-ylmethyl)-6-(4-(1-(trifluoromethyl)cyclopropyl)phenyl)-3,4-dihydro-2H-benzo[e][1,3]oxazin-2-one]",34.1%,71.8%,54.2%
"CC(C)Oc1cc(OC(F)(F)F)ccc1-c1ccc2c(c1)CN(Cc1ncccn1)C(=O)O2 [Example 39, 6-(2-isopropoxy-4-(trifluoromethoxy)phenyl)-3-(pyrimidin-2-ylmethyl)-3,4-dihydro-2H-benzo[e][1,3]oxazin-2-one]",16%,59.3%,33.7%
"CCOc1cc(OC(F)(F)F)ccc1-c1ccc2c(c1)CN(Cc1ncccn1)C(=O)O2 [Example 40, 6-(2-ethoxy-4-(trifluoromethoxy)phenyl)-3-(pyrimidin-2-ylmethyl)-3,4-dihydro-2H-benzo[e][1,3]oxazin-2-one]",16.7%,62.5%,49.4%
"Cc1cnc(CN2Cc3cc(-c4ccc(C(F)(F)F)cc4F)ccc3OC2=O)nc1 [Example 41, 6-(2-fluoro-4-(trifluoromethyl)phenyl)-3-((5-methylpyrimidin-2-yl)methyl)-3,4-dihydro-2H-benzo[e][1,3]oxazin-2-one]",7.1%,36.2%,45.7%
"COc1cc(C(F)(F)F)ccc1-c1ccc2c(c1)CN(Cc1ncc(C)cn1)C(=O)O2 [Example 42, 6-(2-methoxy-4-(trifluoromethyl)phenyl)-3-((5-methylpyrimidin-2-yl)methyl)-3,4-dihydro-2H-benzo[e][1,3]oxazin-2-one]",13.3%,47.4%,42.7%
"Cc1cnc(CN2Cc3cc(-c4ccc(C(F)(F)F)cc4C)ccc3OC2=O)nc1 [Example 43, 6-(2-methyl-4-(trifluoromethyl)phenyl)-3-((5-methylpyrimidin-2-yl)methyl)-3,4-dihydro-2H-benzo[e][1,3]oxazin-2-one]",< 5%,48.9%,37.9%
"COc1cc(C(F)(F)F)ccc1-c1ccc2c(c1)CN(Cc1cccc(C)n1)C(=O)O2 [Example 44, 6-(2-methoxy-4-(trifluoromethyl)phenyl)-3-((6-methylpyridin-2-yl)methyl)-3,4-dihydro-2H-benzo[e][1,3]oxazin-2-one]",20.9%,68.4%,44.8%
"Cc1cccc(CN2Cc3cc(-c4ccc(C(F)(F)F)cc4F)ccc3OC2=O)n1 [Example 45, 6-(2-fluoro-4-(trifluoromethyl)phenyl)-3-((6-methylpyridin-2-yl)methyl)-3,4-dihydro-2H-benzo[e][1,3]oxazin-2-one]",10.4%,62.3%,53.6%
"COc1cc(OC(F)(F)F)ccc1-c1ccc2c(c1)CN(Cc1cccc(C)n1)C(=O)O2 [Example 46, 6-(2-methoxy-4-(trifluoromethoxy)phenyl)-3-((6-methylpyridin-2-yl)methyl)-3,4-dihydro-2H-benzo[e][1,3]oxazin-2-one]",22.4%,77.2%,51.3%
"Cc1cccc(CN2Cc3cc(-c4ccc(OC(F)(F)F)cc4F)ccc3OC2=O)n1 [Example 47, 6-(2-fluoro-4-(trifluoromethoxy)phenyl)-3-((6-methylpyridin-2-yl)methyl)-3,4-dihydro-2H-benzo[e][1,3]oxazin-2-one]",14.1%,55.6%,52.8%
"Cc1csc(CN2Cc3cc(-c4ccc(OC(F)(F)F)cc4)ccc3OC2=O)n1 [Example 52, 3-((4-methylthiazol-2-yl)methyl)-6-(4-(trifluoromethoxy)phenyl)-3,4-dihydro-2H-benzo[e][1,3]oxazin-2-one]",20.8%,63.7%,58%
"Cc1csc(CN2Cc3cc(-c4ccc(OC(F)(F)F)c(F)c4)ccc3OC2=O)n1 [Example 53, 6-(3-fluoro-4-(trifluoromethoxy)phenyl)-3-((4-methylthiazol-2-yl)methyl)-3,4-dihydro-2H-benzo[e][1,3]oxazin-2-one]",32.3%,73.6%,60.3%
"Cc1csc(CN2Cc3cc(-c4ccc(OC(F)(F)F)c(C)c4)ccc3OC2=O)n1 [Example 54, 6-(3-methyl-4-(trifluoromethoxy)phenyl)-3-((4-methylthiazol-2-yl)methyl)-3,4-dihydro-2H-benzo[e][1,3]oxazin-2-one]",6.1%,43.5%,31%
"Cc1csc(CN2Cc3cc(-c4ccc(OC(F)(F)F)cc4F)ccc3OC2=O)n1 [Example 55, 6-(2-fluoro-4-(trifluoromethoxy)phenyl)-3-((4-methylthiazol-2-yl)methyl)-3,4-dihydro-2H-benzo[e][1,3]oxazin-2-one]",22.6%,61.8%,35.3%
"Cc1csc(CN2Cc3cc(-c4ccc(Cl)c(Cl)c4)ccc3OC2=O)n1 [Example 56, 6-(3,4-dichlorophenyl)-3-((4-methylthiazol-2-yl)methyl)-3,4-dihydro-2H-benzo[e][1,3]oxazin-2-one]",< 5%,15.2%,39%
"Cc1csc(CN2Cc3cc(-c4ccc(OC(F)(F)F)cc4Cl)ccc3OC2=O)n1 [Example 57, 6-(2-chloro-4-(trifluoromethoxy)phenyl)-3-((4-methylthiazol-2-yl)methyl)-3,4-dihydro-2H-benzo[e][1,3]oxazin-2-one]",12.8%,61.5%,34.1%
"COc1cc(OC(F)(F)F)ccc1-c1ccc2c(c1)CN(Cc1nc(C)cs1)C(=O)O2 [Example 58, 6-(2-methoxy-4-(trifluoromethoxy)phenyl)-3-((4-methylthiazol-2-yl)methyl)-3,4-dihydro-2H-benzo[e][1,3]oxazin-2-one]",10.6%,58.7%,44.1%
